Assay results published in patent publication US12077503B2, “Substituted cyclic amides and their use as herbicides” (FMC CORPORATION, priority 2015, dated 2024).

Tests used:
Type in all cases: in vivo
[1] = system: blackgrass (Alopecurus myosuroides); experiment: Test A postemergence; details: postemergence; for Blackgrass plant response rating: 125 g ai/ha, visual injury rating on 0 to 100 scale (0 no effect, 100 complete control), approx. 10 d; for Plant response rating, Blackgrass: 500 g ai/ha, 0 to 100 scale, 0 no effect, 100 complete control
Summary of the method: (§1)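 Greenhouse, ~10 d after spray; visual injury vs untreated controls, 0 = no effect, 100 = complete control. Preemergence: directed soil spray over planted seeds. Postemergence: plants 2–10 cm, 1–2 leaf stage. Loam/sand blend. Compound in non-phytotoxic solvent with surfactant.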

[2] = system: giant foxtail (Setaria faberii); experiment: Test A postemergence; details: postemergence; for Foxtail, Giant plant response rating: 125 g ai/ha, visual injury rating on 0 to 100 scale (0 no effect, 100 complete control), approx. 10 d; for Plant response rating, Foxtail, Giant: 500 g ai/ha, 0 to 100 scale, 0 no effect, 100 complete control
Summary of the method: as §1

[3] = system: ryegrass, Italian (Italian ryegrass, Lolium multiflorum); experiment: Test A postemergence; details: postemergence; for Ryegrass, Italian plant response rating: 125 g ai/ha, visual injury rating on 0 to 100 scale (0 no effect, 100 complete control), approx. 10 d; for Plant response rating, Ryegrass, Italian: 500 g ai/ha, 0 to 100 scale, 0 no effect, 100 complete control
Summary of the method: as §1

[4] = system: pigweed (Amaranthus retroflexus); experiment: Test A postemergence; details: postemergence; for Pigweed plant response rating: 125 g ai/ha, visual injury rating on 0 to 100 scale (0 no effect, 100 complete control), approx. 10 d; for Plant response rating, Pigweed: 500 g ai/ha, 0 to 100 scale, 0 no effect, 100 complete control
Summary of the method: as §1

corn (Zea mays) = experiment: Test A postemergence; details: postemergence; for Corn plant response rating: 125 g ai/ha, visual injury rating on 0 to 100 scale (0 no effect, 100 complete control), approx. 10 d; for Plant response rating, Corn: 500 g ai/ha, 0 to 100 scale, 0 no effect, 100 complete control
Summary of the method: as §1

Kochia (Kochia scoparia) [5] = experiment: Test A postemergence; details: postemergence; for Kochia plant response rating: 125 g ai/ha, visual injury rating on 0 to 100 scale (0 no effect, 100 complete control), approx. 10 d; for Plant response rating, Kochia: 500 g ai/ha, 0 to 100 scale, 0 no effect, 100 complete control
Summary of the method: as §1

[6] = system: wheat (Triticum aestivum); experiment: Test A postemergence; details: postemergence; for Wheat plant response rating: 125 g ai/ha, visual injury rating on 0 to 100 scale (0 no effect, 100 complete control), approx. 10 d; for Plant response rating, Wheat: 500 g ai/ha, 0 to 100 scale, 0 no effect, 100 complete control
Summary of the method: as §1

[7] = system: barnyardgrass (Echinochloa crus-galli); experiment: Test A postemergence; details: postemergence; for Barnyardgrass plant response rating: 125 g ai/ha, visual injury rating on 0 to 100 scale (0 no effect, 100 complete control), approx. 10 d; for Plant response rating, Barnyardgrass: 500 g ai/ha, 0 to 100 scale, 0 no effect, 100 complete control
Summary of the method: as §1

[8] = system: Galium (catchweed bedstraw, Galium aparine); experiment: Test A postemergence; details: postemergence; for Galium plant response rating: 125 g ai/ha, visual injury rating on 0 to 100 scale (0 no effect, 100 complete control), approx. 10 d; for Plant response rating, Galium: 500 g ai/ha, 0 to 100 scale, 0 no effect, 100 complete control
Summary of the method: as §1

[9] = system: ragweed (common ragweed, Ambrosia elatior); experiment: Test A postemergence; details: postemergence; for Ragweed plant response rating: 125 g ai/ha, visual injury rating on 0 to 100 scale (0 no effect, 100 complete control), approx. 10 d; for Plant response rating, Ragweed: 500 g ai/ha, 0 to 100 scale, 0 no effect, 100 complete control
Summary of the method: as §1

[10] = system: giant foxtail (Setaria faberii); experiment: Test A preemergence; details: for Plant response rating, Foxtail, Giant: 125 g ai/ha, preemergence, 0 to 100 scale (0 no effect, 100 complete control); for Foxtail, Giant plant response rating (0 to 100 scale, 0 is no effect, 100 is complete control): Preemergence, 500 g ai/ha, visual injury approx. 10 d
Summary of the method: as §1

[11] = system: ryegrass, Italian (Italian ryegrass, Lolium multiflorum); experiment: Test A preemergence; details: for Plant response rating, Ryegrass, Italian: 125 g ai/ha, preemergence, 0 to 100 scale (0 no effect, 100 complete control); for Ryegrass, Italian plant response rating (0 to 100 scale, 0 is no effect, 100 is complete control): Preemergence, 500 g ai/ha, visual injury approx. 10 d
Summary of the method: as §1

[12] = system: pigweed (Amaranthus retroflexus); experiment: Test A preemergence; details: for Plant response rating, Pigweed: 125 g ai/ha, preemergence, 0 to 100 scale (0 no effect, 100 complete control); for Pigweed plant response rating (0 to 100 scale, 0 is no effect, 100 is complete control): Preemergence, 500 g ai/ha, visual injury approx. 10 d
Kochia (Kochia scoparia) [13] = experiment: Test A preemergence; details: for Plant response rating, Kochia: 125 g ai/ha, preemergence, 0 to 100 scale (0 no effect, 100 complete control); for Kochia plant response rating (0 to 100 scale, 0 is no effect, 100 is complete control): Preemergence, 500 g ai/ha, visual injury approx. 10 d
Summary of the method: as §1

[14] = system: barnyardgrass (Echinochloa crus-galli); experiment: Test A preemergence; details: for Plant response rating, Barnyardgrass: 125 g ai/ha, preemergence, 0 to 100 scale (0 no effect, 100 complete control); for Barnyardgrass plant response rating (0 to 100 scale, 0 is no effect, 100 is complete control): Preemergence, 500 g ai/ha, visual injury approx. 10 d
Summary of the method: as §1

[15] = system: ragweed (common ragweed, Ambrosia elatior); experiment: Test A preemergence; details: for Plant response rating, Ragweed: 125 g ai/ha, preemergence, 0 to 100 scale (0 no effect, 100 complete control); for Ragweed plant response rating (0 to 100 scale, 0 is no effect, 100 is complete control): Preemergence, 500 g ai/ha, visual injury approx. 10 d
Summary of the method: as §1

rice (Oryra sativa) = experiment: Test B flooded paddy test; details: Flood, 250 g ai/ha; 0 to 100 scale where 0 is no effect and 100 is complete control; 13 to 15 d
Summary of the method: (§2)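 Plants at 2-leaf stage flooded to 3 cm above soil, with compounds applied directly to paddy water and that depth maintained. Plants kept in greenhouse 13–15 d. Visual rating versus controls on a 0 (no effect) to 100 (complete control) scale.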

[16] = system: ducksalad (Heteranthera limosa); experiment: Test B flooded paddy test; details: Flood, 250 g ai/ha; 0 to 100 scale where 0 is no effect and 100 is complete control; 13 to 15 d
Summary of the method: as §2

[17] = system: sedge, umbrella (small-flower umbrella sedge, Cyperus difformis); experiment: Test B flooded paddy test; details: Flood, 250 g ai/ha; 0 to 100 scale where 0 is no effect and 100 is complete control; 13 to 15 d
Summary of the method: as §2

[18] = system: barnyardgrass (Echinochloa crus-galli); experiment: Test B flooded paddy test; details: Flood, 250 g ai/ha; 0 to 100 scale where 0 is no effect and 100 is complete control; 13 to 15 d
Summary of the method: as §2

O=C(Nc1cccc(F)c1F)C1C(=S)NCC1c1cccc(C(F)(F)F)c1 (stereo not drawn) [Compound 454]
Blackgrass plant response rating [1]: 0
Plant response rating, Blackgrass [1]: 50
Foxtail, Giant plant response rating [2]: 70
Plant response rating, Foxtail, Giant [2]: 80
Ryegrass, Italian plant response rating [3]: 0
Plant response rating, Ryegrass, Italian [3]: 40
Pigweed plant response rating [4]: 0
Plant response rating, Pigweed [4]: 0
Corn plant response rating (corn (Zea mays)): 50
Plant response rating, Corn (corn (Zea mays)): 70
Kochia plant response rating (Kochia (Kochia scoparia) [5]): 0
Plant response rating, Kochia (Kochia (Kochia scoparia) [5]): 0
Wheat plant response rating [6]: 20
Plant response rating, Wheat [6]: 40
Barnyardgrass plant response rating [7]: 60
Plant response rating, Barnyardgrass [7]: 80
Galium plant response rating [8]: 0
Plant response rating, Galium [8]: 30
Ragweed plant response rating [9]: 0
Plant response rating, Ragweed [9]: 0
Plant response rating, Foxtail, Giant [10]: 80
Foxtail, Giant plant response rating (0 to 100 scale, 0 is no effect, 100 is complete control) [10]: 90
Plant response rating, Ryegrass, Italian [11]: 0
Ryegrass, Italian plant response rating (0 to 100 scale, 0 is no effect, 100 is complete control) [11]: 30
Plant response rating, Pigweed [12]: 0
Pigweed plant response rating (0 to 100 scale, 0 is no effect, 100 is complete control) [12]: 0
Plant response rating, Kochia (Kochia (Kochia scoparia) [13]): 0
Kochia plant response rating (0 to 100 scale, 0 is no effect, 100 is complete control) (Kochia (Kochia scoparia) [13]): 0
Plant response rating, Barnyardgrass [14]: 70
Barnyardgrass plant response rating (0 to 100 scale, 0 is no effect, 100 is complete control) [14]: 80
Plant response rating, Ragweed [15]: 0
Ragweed plant response rating (0 to 100 scale, 0 is no effect, 100 is complete control) [15]: 0
Plant response rating, Rice (rice (Oryra sativa)): 15
Plant response rating, Ducksalad [16]: 60
Plant response rating, Sedge, Umbrella [17]: 0
Plant response rating, Barnyardgrass [18]: 40

Cc1c(F)ccc(NC(=O)C2C(=O)NCC2c2cc(F)cc(F)c2)c1F (stereo not drawn) [Compound 461]
Blackgrass plant response rating [1]: 0
Plant response rating, Blackgrass [1]: 0
Foxtail, Giant plant response rating [2]: 80
Plant response rating, Foxtail, Giant [2]: 80
Ryegrass, Italian plant response rating [3]: 0
Plant response rating, Ryegrass, Italian [3]: 20
Pigweed plant response rating [4]: 0
Plant response rating, Pigweed [4]: 0
Corn plant response rating (corn (Zea mays)): 0
Plant response rating, Corn (corn (Zea mays)): 0
Kochia plant response rating (Kochia (Kochia scoparia) [5]): 0
Plant response rating, Kochia (Kochia (Kochia scoparia) [5]): 0
Wheat plant response rating [6]: 0
Plant response rating, Wheat [6]: 0
Barnyardgrass plant response rating [7]: 80
Plant response rating, Barnyardgrass [7]: 90
Galium plant response rating [8]: 0
Plant response rating, Galium [8]: 20
Ragweed plant response rating [9]: 0
Plant response rating, Ragweed [9]: 0
Plant response rating, Foxtail, Giant [10]: 90
Foxtail, Giant plant response rating (0 to 100 scale, 0 is no effect, 100 is complete control) [10]: 90
Plant response rating, Ryegrass, Italian [11]: 20
Ryegrass, Italian plant response rating (0 to 100 scale, 0 is no effect, 100 is complete control) [11]: 20
Plant response rating, Pigweed [12]: 0
Pigweed plant response rating (0 to 100 scale, 0 is no effect, 100 is complete control) [12]: 0
Plant response rating, Kochia (Kochia (Kochia scoparia) [13]): 0
Kochia plant response rating (0 to 100 scale, 0 is no effect, 100 is complete control) (Kochia (Kochia scoparia) [13]): 50
Plant response rating, Barnyardgrass [14]: 70
Barnyardgrass plant response rating (0 to 100 scale, 0 is no effect, 100 is complete control) [14]: 90
Plant response rating, Ragweed [15]: 0
Ragweed plant response rating (0 to 100 scale, 0 is no effect, 100 is complete control) [15]: 0
Plant response rating, Rice (rice (Oryra sativa)): 0
Plant response rating, Ducksalad [16]: 100
Plant response rating, Sedge, Umbrella [17]: 0
Plant response rating, Barnyardgrass [18]: 60

Cc1ccc(C2CNC(=O)C2C(=O)Nc2ccc(F)c(C)c2F)cc1F (stereo not drawn) [Compound 462]
Blackgrass plant response rating [1]: 20
Plant response rating, Blackgrass [1]: 40
Foxtail, Giant plant response rating [2]: 60
Plant response rating, Foxtail, Giant [2]: 70
Ryegrass, Italian plant response rating [3]: 0
Plant response rating, Ryegrass, Italian [3]: 0
Pigweed plant response rating [4]: 0
Plant response rating, Pigweed [4]: 0
Corn plant response rating (corn (Zea mays)): 0
Plant response rating, Corn (corn (Zea mays)): 0
Kochia plant response rating (Kochia (Kochia scoparia) [5]): 0
Plant response rating, Kochia (Kochia (Kochia scoparia) [5]): 0
Wheat plant response rating [6]: 0
Plant response rating, Wheat [6]: 0
Barnyardgrass plant response rating [7]: 70
Plant response rating, Barnyardgrass [7]: 80
Galium plant response rating [8]: 0
Plant response rating, Galium [8]: 10
Ragweed plant response rating [9]: 0
Plant response rating, Ragweed [9]: 0
Plant response rating, Foxtail, Giant [10]: 80
Foxtail, Giant plant response rating (0 to 100 scale, 0 is no effect, 100 is complete control) [10]: 90
Plant response rating, Ryegrass, Italian [11]: 0
Ryegrass, Italian plant response rating (0 to 100 scale, 0 is no effect, 100 is complete control) [11]: 0
Plant response rating, Pigweed [12]: 0
Pigweed plant response rating (0 to 100 scale, 0 is no effect, 100 is complete control) [12]: 0
Plant response rating, Kochia (Kochia (Kochia scoparia) [13]): 30
Kochia plant response rating (0 to 100 scale, 0 is no effect, 100 is complete control) (Kochia (Kochia scoparia) [13]): 70
Plant response rating, Barnyardgrass [14]: 80
Barnyardgrass plant response rating (0 to 100 scale, 0 is no effect, 100 is complete control) [14]: 90
Plant response rating, Ragweed [15]: 10
Ragweed plant response rating (0 to 100 scale, 0 is no effect, 100 is complete control) [15]: 50
Plant response rating, Rice (rice (Oryra sativa)): 0
Plant response rating, Ducksalad [16]: 85
Plant response rating, Sedge, Umbrella [17]: 0
Plant response rating, Barnyardgrass [18]: 40
